The record followed here is the OligoGym collection.

The data set addresses SRA1. The conditions noted are these: ASO.

These antisense oligonucleotides have a phosphorothioate backbone; sugars and methylation of C are not fully specified.
Also: test concentration or dose not given here.

Regarding CTTTCCTTTTGTTGAGGG, the remaining target (mRNA or protein) (fraction of control) was ≥ 1.

Consider CTTTTAACTCCTACCATC, for which the remaining target (mRNA or protein) (fraction of control) was found to be 0.43.

Turning to CTTTTCTGCAATTAATCT, the remaining target (mRNA or protein) (fraction of control) was 0.61.

GACACCAGAGGGACTAGC gave a remaining target (mRNA or protein) (fraction of control) of 0.73.

As to GACCACTCCCCACAGGTG, the remaining target (mRNA or protein) (fraction of control) was ≥ 1.

On to GAGCCTCAGACTCGACTG, for which the remaining target (mRNA or protein) (fraction of control) amounted to 0.65.

GAGGCCCAGGAGAAGTCT registered a remaining target (mRNA or protein) (fraction of control) of 0.62.

GAGGCCCGGAACTCCACT gave a remaining target (mRNA or protein) (fraction of control) of 0.89.

GAGGGAGCGGTGGATGTC displayed a remaining target (mRNA or protein) (fraction of control) of 0.48.

Regarding GAGGGTCCATACTAAGCG, the remaining target (mRNA or protein) (fraction of control) came to 0.53.

GCACCAGTAGAGCCATTC: the remaining target (mRNA or protein) (fraction of control) stood at 0.3.

For GCCAGAGGCAGGACCACT, the remaining target (mRNA or protein) (fraction of control) came out at 0.72.

As for GCCAGGCGTCGGCTGATG, the remaining target (mRNA or protein) (fraction of control) was determined as 0.38.

Sequence GCTCCACGCCAGAGGCAG came in with a remaining target (mRNA or protein) (fraction of control) of 0.49.

GCTCCGCCCAGCACAGGA gave a remaining target (mRNA or protein) (fraction of control) of 0.37.

Sequence GCTGTGGCTGCAGATTTC showed a remaining target (mRNA or protein) (fraction of control) of 0.48.

In the case of GCTTGAAAGCTCTTGCAC, the remaining target (mRNA or protein) (fraction of control) was ≥ 1.

With GGAACCGAGGATTATGAA, the remaining target (mRNA or protein) (fraction of control) turned out to be 0.68.

On to GGAGCCAAGTGACAGAAG, for which the remaining target (mRNA or protein) (fraction of control) was 0.86.

In the case of GGAGCCTTACTTGAAGGA, the remaining target (mRNA or protein) (fraction of control) is 0.54.

For GGATGCTTGTTCAGTCTA, the remaining target (mRNA or protein) (fraction of control) is ≥ 1.

Regarding GGCACCGGAAGGAGATGG, the remaining target (mRNA or protein) (fraction of control) turned out to be 0.43.

On to GGCCCAGGAGAAGTCTCT, for which the remaining target (mRNA or protein) (fraction of control) was ≥ 1.

As for GGCCTGGGTCTGCAGCCC, the remaining target (mRNA or protein) (fraction of control) worked out at 0.94.

In turn, GGCGTCGGCTGATGTCAT gave a remaining target (mRNA or protein) (fraction of control) of 0.42.

On to GGGAGCCTTACTTGAAGG, for which the remaining target (mRNA or protein) (fraction of control) came out at 0.88.

As for GGGTCAGGCCCAGTGGGA, the remaining target (mRNA or protein) (fraction of control) was ≥ 1.

Turning to GGGTCCGCCGGCCTGGGT, the remaining target (mRNA or protein) (fraction of control) was ≥ 1.

As to GGTGGTGGTAAGAAGGGA, the remaining target (mRNA or protein) (fraction of control) was ≥ 1.

In turn, GGTGTCCGGTGAGTCTGG gave a remaining target (mRNA or protein) (fraction of control) of 0.5.

On to GGTTCTTCTCAGCTGTGG, for which the remaining target (mRNA or protein) (fraction of control) was found to be 0.49.

Sequence GTAGGCAGTAGTCTGACT came in with a remaining target (mRNA or protein) (fraction of control) of 0.42.

As for GTATCTCAAGGGTGATAC, the remaining target (mRNA or protein) (fraction of control) is 0.6.

Take GTATGGTATGGTTCTTCT: the remaining target (mRNA or protein) (fraction of control) was determined as 0.94.

Take GTCGGCTGATGTCATCAC: the remaining target (mRNA or protein) (fraction of control) is ≥ 1.

Regarding GTCTGCAGCCCGTATGAG, the remaining target (mRNA or protein) (fraction of control) is ≥ 1.

Consider GTGGATGTCATCTGCTGC, for which the remaining target (mRNA or protein) (fraction of control) is ≥ 1.

For the sequence TATGAAGCCTGCTGGAAG, the remaining target (mRNA or protein) (fraction of control) was 0.64.

As for TCACATGGTCAACCATGA, the remaining target (mRNA or protein) (fraction of control) was 0.93.

TCAGCACATCCTCCATCA: the remaining target (mRNA or protein) (fraction of control) amounted to 0.97.

In the case of TCAGTCACATGGTCAACC, the remaining target (mRNA or protein) (fraction of control) stood at 0.5.

Take TCCAAAGGTCTCAGCACA: the remaining target (mRNA or protein) (fraction of control) worked out at 0.26.

The sequence TCTCCAAGGCATAGGAGA yielded a remaining target (mRNA or protein) (fraction of control) of 0.8.

Take TCTGAAAACAGACTCCTC: the remaining target (mRNA or protein) (fraction of control) worked out at 0.99.

Sequence TCTGCTGCGTCCCACCGG displayed a remaining target (mRNA or protein) (fraction of control) of 0.32.

The sequence TGAAAGCTCTTGCACCAG displayed a remaining target (mRNA or protein) (fraction of control) of 0.64.

For the sequence TGAAGGAGGTGGAGGCCC, the remaining target (mRNA or protein) (fraction of control) was ≥ 1.

In the case of TGAATGGAGAAGGGAGAA, the remaining target (mRNA or protein) (fraction of control) turned out to be 0.75.

TGACAACTTTCCTCCAGC registered a remaining target (mRNA or protein) (fraction of control) of 0.15.

Sequence TGACAGAAGGTCTCCAAG registered a remaining target (mRNA or protein) (fraction of control) of 0.81.

TGCTGCGTCCCACCGGTG had a remaining target (mRNA or protein) (fraction of control) of 0.27.

Turning to TGCTGGAAGCCTGGTATG, the remaining target (mRNA or protein) (fraction of control) was 0.28.

Regarding TGGCCACGGCAGTCTTCC, the remaining target (mRNA or protein) (fraction of control) was determined as 0.52.

Turning to TGGTAAGCAGCGAGCGCC, the remaining target (mRNA or protein) (fraction of control) amounted to 0.74.

In turn, TGGTATGGTTCTTCTCAG yielded a remaining target (mRNA or protein) (fraction of control) of 0.58.

Turning to TGTCATCACATACCTGCT, the remaining target (mRNA or protein) (fraction of control) is 0.76.

TGTGTGGCCACGGCAGTC came in with a remaining target (mRNA or protein) (fraction of control) of 0.47.

For the sequence TGTTCCTGCAGCAGTGCC, the remaining target (mRNA or protein) (fraction of control) came out at 0.39.

Sequence TTCCAAAGGTCTCAGCAC gave a remaining target (mRNA or protein) (fraction of control) of 0.49.

As for TTCCAGCCGCGTTCCTTG, the remaining target (mRNA or protein) (fraction of control) was ≥ 1.
